Experimental data reported in ChEMBL document CHEMBL1155403, “Simple and conveniently accessible bi-fluorescence-labeled substrates for amylases” (Bioorg Med Chem Lett, 2010).
Active and inactive are the calls of the source. The calls are words filed in the database; no cut-off is given here.

Target: T1, Alpha-amylase 1A (Homo sapiens) (UniProt P0DUB6)
T1 sequence (whole entry): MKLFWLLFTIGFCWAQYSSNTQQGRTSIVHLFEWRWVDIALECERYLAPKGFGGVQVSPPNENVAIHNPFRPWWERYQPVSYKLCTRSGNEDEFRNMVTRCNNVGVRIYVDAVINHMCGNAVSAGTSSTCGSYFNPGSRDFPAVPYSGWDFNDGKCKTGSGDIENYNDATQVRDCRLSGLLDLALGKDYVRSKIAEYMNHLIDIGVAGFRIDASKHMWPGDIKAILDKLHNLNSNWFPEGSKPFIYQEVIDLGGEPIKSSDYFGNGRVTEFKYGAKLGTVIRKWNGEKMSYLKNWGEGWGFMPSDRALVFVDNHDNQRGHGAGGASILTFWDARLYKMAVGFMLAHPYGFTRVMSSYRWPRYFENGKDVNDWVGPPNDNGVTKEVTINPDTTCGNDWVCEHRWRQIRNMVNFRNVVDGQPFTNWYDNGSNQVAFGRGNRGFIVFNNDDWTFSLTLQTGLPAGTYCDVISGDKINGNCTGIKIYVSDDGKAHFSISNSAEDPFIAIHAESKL
Assay: Activity of human salivary alpha amylase by FRET assay

CN(C)c1cccc2c(S(=O)(=O)NCCSCCCCCS[C@@H]3O[C@H](CO)[C@@H](O[C@H]4O[C@H](COCc5ccc6ccccc6c5)[C@@H](O)[C@H](O)[C@H]4O)[C@H](O)[C@H]3O)cccc12
Activity: inactive

CN(C)c1cccc2c(S(=O)(=O)NCCSCCCCCS[C@@H]3O[C@H](CO)[C@@H](O[C@H]4O[C@H](CO)[C@@H](O[C@H]5O[C@H](CO)[C@@H](O[C@H]6O[C@H](CO)[C@@H](O[C@H]7O[C@H](CO)[C@@H](O[C@H]8O[C@H](COCc9ccc%10ccccc%10c9)[C@@H](O)[C@H](O)[C@H]8O)[C@H](O)[C@H]7O)[C@H](O)[C@H]6O)[C@H](O)[C@H]5O)[C@H](O)[C@H]4O)[C@H](O)[C@H]3O)cccc12
Activity: Active
